Results from publication PMC9281440, “In Vivo Distribution and Therapeutic Efficacy of Radioiodine-Labeled pH-Low Insertion Peptide Variant 3 in a Mouse Model of Breast Cancer” (Molecular Imaging, 2022).
Read-outs that look alike come from different tables or passages of the source. Peptide text beside a SMILES is read from it.

Experiments:
MDA-MB-231 cells = experiment: In vitro cell binding assay of 125I-labeled peptides; type: cell-based, human; conditions: 37°C, mean ± SD, triplicate; for binding fraction to cells, B/(B + F) × 100%: γ counter
Procedure: Cells were incubated with ^125I-WT-pHLIP or ^125I-Var3-pHLIP for 1 h at 37°C in the medium at different pH values ranging from 6.2 to 7.8 (6.2, 6.6, 7.0, 7.4, 7.8). At the same time, cells in the medium at pH 6.2 were further incubated with ^125I-labeled peptide with an excess of unlabeled peptide (25 μg/well). The supernatant was aspirated into a tube. The cells were then washed twice with PBS of the corresponding pH to remove unbound radioactivity. The wash solution was also added to the supernatant tube containing free radioactivity (F). The cells with bound radioactivity (B) were completely lysed with 300 μl sodium hydroxide and aspirated into a cell tube. The radioactive counts of the cell and supernatant tube were measured by a γ counter. The cell binding fraction of the ^125I-labeled peptides was calculated as B/(B + F) × 100%. All experiments were performed in triplicate.

[1] = In vitro stability of radiolabeled peptides in serum at 37°C; type: in vitro ADME; conditions: 37°C in serum, radiochemical purity, thin-layer chromatography
Procedure: (§1) WT-pHLIP and Var3-pHLIP were labeled with ^125I for in vivo imaging experiments, and Var3-pHLIP was labeled with ^131I for therapeutic efficacy experiments. Radioactive iodine binds to tyrosine residues in pHLIPs. Peptides were dissolved in 200 μL of 0.02 M PBS (pH 7.4) to reach a concentration of 1 mg/mL and mixed with 10 μL of Na^125I (74 MBq) or 20 μL of Na^131I (925 MBq). Chloramine-T (20 μL, 5 mg/mL) was added to the test tubes and mixed for 70 s at room temperature. The reaction was stopped by adding 200 μL of sodium metabisulfite (5 mg/mL). The peptides were eluted in ethanol through a C18 column equilibrated with 20 mL of 100% ethanol and 20 mL of distilled water. The radioactive purity of ^125I-WT-pHLIP, ^125I-Var3-pHLIP, and ^131I-Var3-pHLIP was determined using thin-layer chromatography. Furthermore, the radiochemical purity of ^125I-WT-pHLIP, ^125I-Var3-pHLIP, and ^131I-Var3-pHLIP was measured, and chemical stability was determined at 24 and 48 h at room temperature (25°C) in PBS and at 37°C in serum.

[2] = Micro-SPECT/CT imaging and distribution of 125I-labeled pHLIPs; type: in vivo; conditions: female, mouse, total radioactivity, 4T1 tumor-bearing nude mice, 3.7 MBq iv, micro-SPECT/CT ROI, mean ± SD, n = 4; for tissue uptake at 4 h: 4 h pi; for tissue uptake at 24 h: 24 h pi; for tissue uptake at 48 h: 48 h pi; for tissue uptake at 1 h: 1 h pi; for tissue uptake at 2 h: 2 h pi
Procedure: Five-week-old female athymic BALB/c nude mice (Shanghai Slaccas Experiment Animal Corp., Shanghai, China) were used in our study. Mouse xenograft models of MDA-MB-231, 4T1, and SK-BR-3 cells were produced by the subcutaneous injection of 5 × 10^6 cells (suspended in 150 μL PBS) into the right axilla of each mouse. The mice were used in subsequent experiments when tumor diameter reached 0.5-0.9 cm. The study protocol was approved by the institutional review board and by the Experimental Animal Center of Ruijin Hospital affiliated to the School of Medicine of Shanghai Jiao Tong University.
Three days before micro-SPECT/CT imaging, 300 μL of 1% Kl solution was administered to mice by oral gavage once a day, and 0.1% Kl was added into the drinking water to block thyroid gland activity. Mice-bearing MDA-MB-231, 4T1, or SK-BR-3 tumors were intravenously injected with 3.7 MBq of ^125I-WT-pHLIP or ^125I-Var3-pHLIP. Each group contained four mice. The mice were anesthetized by isoflurane inhalation, placed in the prone position, and scanned using a four-head SPECT/CT system (U-SPECT/CT, MI-Lab, Netherlands) and dedicated multipinhole apertures with a diameter of 1.5 mm at 1, 2, 4, 24, and 48 h after injection of ^125I-labeled peptides. CT images were acquired after static SPECT imaging (10 min/frame). The images were reconstructed using U-SPECT REC software and analyzed using PMOD software version 3.9 (Switzerland). Regions of interest (ROIs) were drawn in the tumors and organs, including the brain, heart, liver, lungs, kidneys, intestine, and bladder, at various time points. The radioactivity per gram (ID%/g) in the ROIs was measured to obtain the dynamic tumor-to-background ratio (TBR, muscle tissue was used as the background) and the in vivo distribution and kinetics of ^125I-WT-pHLIP and ^125I-Var3-pHLIP in the xenograft models of BC.

[3] = In vitro stability of radiolabeled peptides in PBS at room temperature; type: physicochemical; conditions: room temperature (25°C), PBS buffer, radiochemical purity, thin-layer chromatography
Procedure: as §1

[4] = BALB/c nude, read-out: Distribution, Tumor
[5] = athymic BALB/c nude, bladder, read-out: Distribution, Bladder
[6] = athymic BALB/c nude, brain, read-out: Distribution, Brain
[7] = athymic BALB/c nude, heart, read-out: Distribution, Heart
[8] = athymic BALB/c nude, intestine, read-out: Distribution, Intestine
[9] = athymic BALB/c nude, kidney, read-out: Distribution, Kidney
[10] = athymic BALB/c nude, liver, read-out: Distribution, Liver
[11] = athymic BALB/c nude, lung, read-out: Distribution, Lung
[12] = athymic BALB/c nude, muscle, read-out: Distribution, Muscle

stability ([1]; 24 h): 83.2%
stability ([1]; 48 h): 82.6%
tissue uptake at 4 h [2, 4]: 3.4 ± 0.73 %ID/g
tissue uptake at 24 h [2, 4]: 0.21 ± 0.07 %ID/g
tissue uptake at 48 h [2, 4]: 0.12 ± 0.04 %ID/g
tissue uptake at 1 h [2, 5]: 33.7 ± 21.1 %ID/g
tissue uptake at 2 h [2, 5]: 24.9 ± 10.8 %ID/g
tissue uptake at 4 h [2, 5]: 42.7 ± 17.6 %ID/g
tissue uptake at 24 h [2, 5]: 2.83 ± 1.65 %ID/g
tissue uptake at 48 h [2, 5]: 0.21 ± 0.13 %ID/g
tissue uptake at 1 h [2, 6]: 1.44 ± 0.24 %ID/g
tissue uptake at 2 h [2, 6]: 1.32 ± 0.49 %ID/g
tissue uptake at 4 h [2, 6]: 1.04 ± 0.47 %ID/g
tissue uptake at 24 h [2, 6]: 0.16 ± 0.1 %ID/g
tissue uptake at 48 h [2, 6]: 0.13 ± 0.09 %ID/g
tissue uptake at 1 h [2, 7]: 14.4 ± 2.44 %ID/g
tissue uptake at 2 h [2, 7]: 11 ± 2.39 %ID/g
tissue uptake at 4 h [2, 7]: 8.21 ± 2.03 %ID/g
tissue uptake at 24 h [2, 7]: 0.36 ± 0.16 %ID/g
tissue uptake at 48 h [2, 7]: 0.17 ± 0.05 %ID/g
tissue uptake at 1 h [2, 8]: 3.65 ± 0.64 %ID/g
tissue uptake at 2 h [2, 8]: 3.63 ± 1.19 %ID/g
tissue uptake at 4 h [2, 8]: 3.23 ± 0.7 %ID/g
tissue uptake at 24 h [2, 8]: 0.28 ± 0.15 %ID/g
tissue uptake at 48 h [2, 8]: 0.14 ± 0.11 %ID/g
tissue uptake at 1 h [2, 9]: 7.98 ± 3.12 %ID/g
tissue uptake at 2 h [2, 9]: 7.97 ± 2.23 %ID/g
tissue uptake at 4 h [2, 9]: 4.99 ± 2.04 %ID/g
tissue uptake at 24 h [2, 9]: 0.39 ± 0.3 %ID/g
tissue uptake at 48 h [2, 9]: 0.2 ± 0.13 %ID/g
tissue uptake at 1 h [2, 10]: 14.9 ± 3.55 %ID/g
tissue uptake at 2 h [2, 10]: 13.2 ± 2.28 %ID/g
tissue uptake at 4 h [2, 10]: 12.6 ± 3.61 %ID/g
tissue uptake at 24 h [2, 10]: 0.6 ± 0.16 %ID/g
tissue uptake at 48 h [2, 10]: 0.23 ± 0.04 %ID/g
tissue uptake at 1 h [2, 11]: 13.8 ± 3.09 %ID/g
tissue uptake at 2 h [2, 11]: 11.3 ± 3.09 %ID/g
tissue uptake at 4 h [2, 11]: 9.4 ± 2.45 %ID/g
tissue uptake at 24 h [2, 11]: 0.48 ± 0.15 %ID/g
tissue uptake at 48 h [2, 11]: 0.19 ± 0.1 %ID/g
tissue uptake at 1 h [2, 12]: 1.41 ± 0.61 %ID/g
tissue uptake at 2 h [2, 12]: 1.03 ± 0.19 %ID/g
tissue uptake at 4 h [2, 12]: 0.8 ± 0.26 %ID/g
tissue uptake at 24 h [2, 12]: 0.06 ± 0.04 %ID/g
tissue uptake at 48 h [2, 12]: 0.03 ± 0.03 %ID/g
tissue uptake at 1 h ([2]; athymic BALB/c nude, read-out: Distribution, Tumor): 4.26 ± 1.24 %ID/g
stability ([3]; 24 h): > 95%
stability ([3]; 48 h): > 90%
SMILES: CC(C)C[C@H](NC(=O)[C@H](Cc1ccc(O)c(I)c1)NC(=O)[C@H](C)NC(=O)[C@H](CCCNC(=N)N)NC(=O)[C@H](Cc1c[nH]c2ccccc12)NC(=O)[C@@H]1CCCN1C(=O)[C@H](CC(N)=O)NC(=O)[C@H](CCC(N)=O)NC(=O)[C@H](CC(=O)O)NC(=O)[C@H](CC(=O)O)NC(=O)[C@H](CS)NC(=O)[C@H](C)N)C(=O)N[C@@H](CC(=O)O)C(=O)N[C@@H](CC(C)C)C(=O)N[C@@H](CC(C)C)C(=O)N[C@@H](Cc1ccccc1)C(=O)N1CCC[C@H]1C(=O)N[C@H](C(=O)N[C@@H](CC(=O)O)C(=O)N[C@H](C(=O)N[C@@H](CC(C)C)C(=O)N[C@@H](CC(C)C)C(=O)N[C@@H](CC(C)C)C(=O)N[C@@H](CC(=O)O)C(=O)N[C@@H](CC(C)C)C(=O)N[C@@H](CC(C)C)C(=O)N[C@@H](Cc1c[nH]c2ccccc12)C(=O)N[C@@H](CCCCN)C(=O)O)[C@@H](C)O)[C@@H](C)O [125I-Var3-pHLIP] (HELM PEPTIDE1{A.C.D.D.Q.N.P.W.R.A.[O=C([C@H](Cc1ccc(O)c(I)c1)N[*:1])[*:2]].L.D.L.L.F.P.T.D.T.L.L.L.D.L.L.W.K}$$$$V2.0; N-terminus and C-terminus assumed)
binding fraction to cells, B/(B + F) × 100% (MDA-MB-231 cells; pH 6.2, 1 h): 24.90 ± 0.96%
binding fraction to cells with an excess of unlabeled peptide (MDA-MB-231 cells; pH 6.2, excess unlabeled peptide 25 μg/well): 1.50 ± 0.11%
binding fraction to cells, B/(B + F) × 100% (MDA-MB-231 cells; pH 6.6, 1 h): 23.88 ± 0.55%
binding fraction to cells, B/(B + F) × 100% (MDA-MB-231 cells; pH 7.0, 1 h): 23.40 ± 0.44%
binding fraction to cells, B/(B + F) × 100% (MDA-MB-231 cells; pH 7.4, 1 h): 12.3 ± 0.80%
binding fraction to cells, B/(B + F) × 100% (MDA-MB-231 cells; pH 7.8, 1 h): 1.30 ± 0.10%
